Counter-ions that a name gives are not always drawn.
Key:
[1] = biological target: T1, PDGFRβ (Homo sapiens, UniProt P09619); test: PDGFRβ cell-based assay (phospho-PDGFRβ ELISA, transfected CHO cells); conditions: compound at 100 nM, read-out: % PDGFRβ kinase activity remains
T1 construct: expressed in transfected cells; host or cells: CHO cells, pcDNA3.1 plasmid
Protocol: A standard cell-based assay for PDGFRβ kinase activity can be used to test a compound of this invention and to identify PDGFRβ antagonists.
Specifically, a compound to be tested was first dissolved in DMSO to a concentration of 10 mM and stored at −20° C. The activity of PDGFRβ in cells depends on the phosphorylation level of its intracellular domain induced by the ligand. In order to express PDGFRβ in the cell, full length PDGFRβ sequence was cloned into PC-DNA3.1 vector. The plasmid was then transfected into CHO cells. After 48 hours following the transfection, the expression of PDGFRβ in transfected CHO cells was confirmed by regular western blotting.
To screen the compound of this invention, the ELISA kit (R&D Systems, Minneapolis, Minn., USA) was used. One day before the screening, CHO cells transfected with full length PDGFRβ plasmid were grown in DMEM medium without the presence of serum. On the day of screening, various concentrations of compounds (from 0.5 nM to 500 nM) were added into DMEM medium. Two hours later, 20% of FBS (Fetal Bovine Serum) was added into the medium to stimulate the expression of phosphor-PDGFRβ. Cell lysate from approximately 5×10^5 transfected CHO cells were reacted with anti-phosphor-PDGFRβ or anti-total PDGFRβ antibody in 96 well plates, in the presence of detection antibody, the phosphor-PDGFRβ or total PDGFRβ were detected with Streptavidin-HRP (R&D Systems), followed by chemiluminescent detection.

[2] = biological target: T2, VEGFR2 (Homo sapiens, UniProt P35968); test: VEGFR2 cell-based assay (phospho-VEGFR2 ELISA, transfected CHO cells); conditions: compound at 100 nM, read-out: % VEGFR2 kinase activity remains
T2 construct: expressed in transfected cells; host or cells: CHO cells, pcDNA3.1 plasmid
T2 sequence (P35968 20-1356, species assumed): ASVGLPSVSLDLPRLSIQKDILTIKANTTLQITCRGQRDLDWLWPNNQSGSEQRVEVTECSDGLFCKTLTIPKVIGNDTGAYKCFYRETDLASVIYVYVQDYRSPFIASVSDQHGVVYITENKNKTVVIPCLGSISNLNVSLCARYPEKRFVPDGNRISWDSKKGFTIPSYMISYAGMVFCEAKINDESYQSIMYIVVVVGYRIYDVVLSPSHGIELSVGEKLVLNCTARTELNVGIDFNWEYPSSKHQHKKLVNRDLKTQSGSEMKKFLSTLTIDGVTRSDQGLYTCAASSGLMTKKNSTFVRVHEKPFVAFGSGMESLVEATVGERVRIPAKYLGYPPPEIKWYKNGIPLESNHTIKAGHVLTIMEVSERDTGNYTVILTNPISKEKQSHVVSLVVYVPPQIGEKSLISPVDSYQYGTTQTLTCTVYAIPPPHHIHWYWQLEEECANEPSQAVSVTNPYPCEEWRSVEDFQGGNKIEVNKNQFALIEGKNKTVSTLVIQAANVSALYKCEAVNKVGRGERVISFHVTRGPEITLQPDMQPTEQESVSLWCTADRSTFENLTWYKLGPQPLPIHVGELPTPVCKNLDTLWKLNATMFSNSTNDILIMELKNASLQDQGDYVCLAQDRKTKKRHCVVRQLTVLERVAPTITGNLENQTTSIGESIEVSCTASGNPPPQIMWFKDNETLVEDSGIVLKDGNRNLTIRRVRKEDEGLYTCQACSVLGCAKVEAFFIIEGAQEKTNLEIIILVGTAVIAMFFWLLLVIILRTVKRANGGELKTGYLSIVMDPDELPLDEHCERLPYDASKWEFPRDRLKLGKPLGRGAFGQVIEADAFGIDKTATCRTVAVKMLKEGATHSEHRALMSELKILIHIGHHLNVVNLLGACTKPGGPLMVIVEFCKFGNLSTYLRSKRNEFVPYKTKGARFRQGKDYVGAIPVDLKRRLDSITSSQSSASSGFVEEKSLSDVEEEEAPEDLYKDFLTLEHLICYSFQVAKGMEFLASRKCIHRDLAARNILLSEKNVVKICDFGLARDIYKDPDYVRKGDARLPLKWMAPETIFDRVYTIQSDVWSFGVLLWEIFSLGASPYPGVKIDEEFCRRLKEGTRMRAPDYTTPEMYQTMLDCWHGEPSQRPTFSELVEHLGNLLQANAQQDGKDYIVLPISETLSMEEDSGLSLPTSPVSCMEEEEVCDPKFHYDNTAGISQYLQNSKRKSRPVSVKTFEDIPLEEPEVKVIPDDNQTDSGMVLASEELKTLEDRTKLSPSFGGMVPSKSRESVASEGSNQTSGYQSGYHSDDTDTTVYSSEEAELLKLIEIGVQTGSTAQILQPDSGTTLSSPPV
Protocol: A standard cell-based assay for VEGFR2 kinase activity can be used to test compounds of this invention and to identify VEGFR2 antagonists.
Specifically, a compound to be tested was first dissolved in DMSO to a concentration of 10 mM and stored at −20° C. The activity of VEGFR2 in cells depends on the phosphorylation level at its intracellular domain induced by the ligand. In order to express VEGFR2 in the cells, full length VEGFR2 sequence was cloned into PC-DNA3.1 vector, the plasmid was then transfected into CHO cells. After 48 hours, the expression of VEGFR2 in transfected CHO cells was confirmed by regular western blotting.
To screen the compounds of this invention, the ELISA kit (R&D Systems) was used. One day before the screening, CHO cells transfected with full length VEGFR2 plasmid were grown in DMEM medium without the presence of serum. On the day of screening, various concentrations of compounds (From 0.5 nM to 500 nM) were added into DMEM medium. Two hours later, 20% of FBS (Fetal Bovine Serum) was added into the medium to stimulate the production of phosphor-VEGFR2. Cell lysate from approximately 5×10^5 transfected CHO cells were reacted with anti-phosphor-VEGFR2 or anti-total VEGFR2 antibody in 96 well plates. In the presence of detection antibody, the phosphor-VEGFR2 or total VEGFR2 were detected with Streptavidin-HRP (R&D Systems) followed by chemiluminescence detection.

[3] = biological target: T3, c-Met (Homo sapiens, UniProt P08581); test: c-Met cell-based assay (phospho-c-Met ELISA, A549 cells); conditions: compound at 100 nM
T3 construct: endogenous in cells; host or cells: A549 cells
T3 sequence (P08581 25-1390): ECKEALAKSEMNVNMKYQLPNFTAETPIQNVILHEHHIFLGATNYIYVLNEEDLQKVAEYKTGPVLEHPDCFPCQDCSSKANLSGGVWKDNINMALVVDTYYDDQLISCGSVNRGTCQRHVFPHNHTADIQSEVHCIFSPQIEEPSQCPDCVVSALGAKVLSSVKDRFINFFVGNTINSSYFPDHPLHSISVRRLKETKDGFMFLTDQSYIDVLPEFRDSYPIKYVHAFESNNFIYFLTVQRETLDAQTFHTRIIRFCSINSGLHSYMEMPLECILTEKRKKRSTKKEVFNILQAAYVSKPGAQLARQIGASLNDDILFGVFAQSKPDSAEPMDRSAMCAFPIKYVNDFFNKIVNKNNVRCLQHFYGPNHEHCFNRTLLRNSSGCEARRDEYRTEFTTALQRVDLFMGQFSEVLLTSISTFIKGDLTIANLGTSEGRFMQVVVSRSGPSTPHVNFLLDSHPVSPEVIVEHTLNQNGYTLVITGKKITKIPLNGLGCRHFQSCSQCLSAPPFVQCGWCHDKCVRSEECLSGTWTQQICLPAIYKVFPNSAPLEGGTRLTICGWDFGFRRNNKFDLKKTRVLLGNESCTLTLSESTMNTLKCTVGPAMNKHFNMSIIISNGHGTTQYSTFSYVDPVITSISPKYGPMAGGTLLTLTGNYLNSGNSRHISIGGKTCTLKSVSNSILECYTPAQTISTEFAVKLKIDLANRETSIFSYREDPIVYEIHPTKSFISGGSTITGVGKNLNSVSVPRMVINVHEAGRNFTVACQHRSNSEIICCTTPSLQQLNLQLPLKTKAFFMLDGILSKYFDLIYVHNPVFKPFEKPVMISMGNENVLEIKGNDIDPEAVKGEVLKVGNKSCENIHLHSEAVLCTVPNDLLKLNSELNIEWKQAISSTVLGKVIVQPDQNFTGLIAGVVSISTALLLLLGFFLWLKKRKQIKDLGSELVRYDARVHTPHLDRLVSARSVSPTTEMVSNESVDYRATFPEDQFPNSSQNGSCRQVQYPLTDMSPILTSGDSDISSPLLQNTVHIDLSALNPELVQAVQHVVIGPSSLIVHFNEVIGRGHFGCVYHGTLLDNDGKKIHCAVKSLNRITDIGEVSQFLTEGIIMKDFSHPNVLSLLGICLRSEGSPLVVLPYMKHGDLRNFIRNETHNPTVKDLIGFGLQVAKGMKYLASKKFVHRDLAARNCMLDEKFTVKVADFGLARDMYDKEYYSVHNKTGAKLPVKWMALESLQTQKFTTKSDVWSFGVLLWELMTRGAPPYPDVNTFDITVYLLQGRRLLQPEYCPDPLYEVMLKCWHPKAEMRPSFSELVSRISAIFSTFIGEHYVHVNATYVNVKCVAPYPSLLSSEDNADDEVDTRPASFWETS
Protocol: A procedure for standard cell-based assay for c-Met kinase activity can be used to test compounds of this invention for their inhibitory effect on this kinase and to identify c-Met antagonists.
Specifically, a compound to be tested was first dissolved in DMSO to a concentration of 10 mM and stored at −20° C. The activity of c-Met in cells depends on the phosphorylation level at its intracellular domain induced by its ligand, Hepatocyte growth factor (HGF). In order to induce the cells to produce phosphate c-Met, paracrine HGF-dependent NSCLC (None Small Cell Lung Cancer) A549 cells were grown in DMEM with 10% FBS.
To screen compounds of this invention for their inhibitory effect on c-Met kinase, the ELISA kit (R&D Systems) was used. One day before screening procedure, A549 cells were grown in DMEM without the presence of serum. On the day of screening procedure, various concentrations of compounds (from 0.5 nM to 500 nM) were added into the culture medium. Two hours later, 20% of FBS (Fetal Bovine Serum) was added into the medium to stimulate the expression of phosphor-c-Met. After 20 minutes, cell lysate from approximately 5×10^5 A549 cells were reacted with anti-phosphor-c-Met or anti total c-Met antibody in 96 well plates. In the presence of detection antibody, the phosphor-c-Met or total c-Met can be detected with Streptavidin-HRP (R&D Systems) followed by chemiluminescence detection.

[4] = tested on: MDA-MB-231 human breast cancer cells; test: In vivo anti-tumor efficacy, MDA-MB-231 xenograft; conditions: Breast cancer MDA-MB-231, nu/nu Balb/c mice, 100 mg/kg oral once per day, n = 2 × 3
Protocol: Female (nu/nu) Balb/c athymic mice at 4-6 weeks of age were injected subcutaneously (s.c.) with MDA-MB-231 human breast cancer cells, A549 human non-small cell lung cancer cells, U87-MG human glioblastoma cells, PC-3 human prostate cancer cells, HT-29 human colon cancer, BEL-7404 human hepatocellular carcinoma, or MKN-45 human gastric cancer cells (ATCC, 5×10^6 cells suspended in 100 μl DMEM medium). Treatment was initiated after the tumor mass grown from s.c. implanted tumor cells reached a median volume of 200-400 mm^3. Mice were randomized into groups with three in each group for small-sample efficacy tests such that the median tumor volume is nearly equal among all groups. For large-sample efficacy tests, mice were randomized into groups with thirteen or fourteen in each group. Each group was treated either with compounds (dissolved in 2:1 mixture of PEG400 and 0.01N HCl (v/v)) or without compounds (vehicle only, 2:1 mixture of PEG400 and 0.01N HCl (v/v)) once per day at dose 12.5, 25, 50 or 100 mg/kg by oral gavage. Tumor volumes were assessed at least twice weekly by caliper measurement from the start of treatment. Tumor volume was calculated using the formula ½×L×W^2 (L: length of tumor's long axis, W: length of tumor's short axis). Treatment was applied for at least two weeks or until the tumor volume reaches a size of ˜2500 mm^3 or greater. Mice were humanly sacrificed after the experiment.
The efficacy of compounds in reducing tumor growth was assessed by the index Tumor Growth Inhibition (TGI). TGI for a given treatment period was calculated using the group mean tumor volumes according to the formula: TGI=100×(VVehicle—group−VTreatment—group)÷VVehicle—group wherein VVehicle—group represents the mean tumor volume for the group treated with vehicle and VTreatment—group represents the mean tumor volume of the group treated with a compound.

T1 sequence (P09619 33-1106, species assumed): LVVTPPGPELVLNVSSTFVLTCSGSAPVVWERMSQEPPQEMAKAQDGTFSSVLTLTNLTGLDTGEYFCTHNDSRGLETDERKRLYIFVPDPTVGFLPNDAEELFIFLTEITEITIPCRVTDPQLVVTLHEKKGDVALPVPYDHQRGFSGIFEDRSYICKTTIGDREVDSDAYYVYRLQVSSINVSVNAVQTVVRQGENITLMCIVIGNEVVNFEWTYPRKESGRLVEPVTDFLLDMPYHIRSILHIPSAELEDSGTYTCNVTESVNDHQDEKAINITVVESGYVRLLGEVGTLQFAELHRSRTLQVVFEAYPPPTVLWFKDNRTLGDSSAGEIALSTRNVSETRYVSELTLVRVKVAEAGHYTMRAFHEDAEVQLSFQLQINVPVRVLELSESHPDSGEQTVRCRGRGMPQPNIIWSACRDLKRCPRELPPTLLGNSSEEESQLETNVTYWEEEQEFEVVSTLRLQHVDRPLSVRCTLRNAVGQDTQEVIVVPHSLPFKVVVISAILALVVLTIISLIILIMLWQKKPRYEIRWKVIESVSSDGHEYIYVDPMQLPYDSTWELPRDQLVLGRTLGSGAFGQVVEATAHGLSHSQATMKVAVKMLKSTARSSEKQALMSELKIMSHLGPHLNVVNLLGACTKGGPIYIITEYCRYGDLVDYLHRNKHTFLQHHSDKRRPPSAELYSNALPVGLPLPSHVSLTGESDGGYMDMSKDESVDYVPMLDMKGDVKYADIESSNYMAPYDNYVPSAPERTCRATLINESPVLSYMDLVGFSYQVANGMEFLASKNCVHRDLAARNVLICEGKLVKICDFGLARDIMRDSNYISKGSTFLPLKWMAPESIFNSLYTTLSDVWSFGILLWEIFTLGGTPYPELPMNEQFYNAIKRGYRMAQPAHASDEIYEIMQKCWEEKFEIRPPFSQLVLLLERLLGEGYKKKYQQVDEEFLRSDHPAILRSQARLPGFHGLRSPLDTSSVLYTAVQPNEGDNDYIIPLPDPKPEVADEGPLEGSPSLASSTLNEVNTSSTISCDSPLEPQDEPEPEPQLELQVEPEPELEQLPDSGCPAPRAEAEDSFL

remaining activity at 0.1 µM [1] [%] | remaining activity at 0.1 µM [2] [%] | SMILES | % c-Met kinase activity remains [3] | Tumor Growth Inhibition (TGI) [4]
≥ 70 | < 70 | COc1ccc(OC)c(NC(=O)Nc2cccc3c2ccn3Cc2c[nH]c3ncccc23)c1.Cl [Example 32, 1-(2,5-Dimethoxyphenyl)-3-[1-(1H-pyrrolo[2,3-b]pyridin-3-ylmethyl)-1H-indol-4-yl]urea hydrochloride] | A (the percentage of kinase activity remains is below 70%) | 
≥ 70 | ≥ 70 | Cl.O=C(Nc1cccc(OC(F)(F)F)c1)Nc1cccc2c1ccn2Cc1c[nH]c2ncccc12 [Example 21, 1-(3-Trifluoromethoxyphenyl)-3-[1-(1H-pyrrolo[2,3-b]pyridin-3-ylmethyl)-1H-indol-4-yl]urea hydrochloride] | B (the percentage is greater or equal to 70%) | 
≥ 70 | < 70 | Cl.O=C(Nc1ccc(Cl)cc1F)Nc1cccc2c1ccn2Cc1c[nH]c2ncccc12 [Example 28, 1-(2-Fluoro-4-chlorophenyl)-3-[1-(1H-pyrrolo[2,3-b]pyridin-3-ylmethyl)-1H-indol-4-yl]urea hydrochloride] | A (the percentage of kinase activity remains is below 70%) | 
≥ 70 | ≥ 70 | Cl.O=C(Nc1ccccc1)Nc1cccc2c1ccn2Cc1c[nH]c2ncccc12 [Example 4, 1-Phenyl-3-[1-(1H-pyrrolo[2,3-b]pyridin-3-ylmethyl)-1H-indol-4-yl]urea hydrochloride] | B (the percentage is greater or equal to 70%) | 
≥ 70 | < 70 | Cl.O=C(Nc1cccc(F)c1)Nc1cccc2c1ccn2Cc1ccnc2[nH]ccc12 [Example 35, 1-(3-Fluorophenyl)-3-[1-(1H-pyrrolo[2,3-b]pyridin-4-ylmethyl)-1H-indol-4-yl]urea hydrochloride] | A (the percentage of kinase activity remains is below 70%) | 
≥ 70 | ≥ 70 | Cl.O=C(Nc1ccc(OC(F)(F)F)cc1)Nc1cccc2c1ccn2Cc1c[nH]c2ncccc12 [Example 22, 1-(4-Trifluoromethoxyphenyl)-3-[1-(1H-pyrrolo[2,3-b]pyridin-3-ylmethyl)-1H-indol-4-yl]urea hydrochloride] | A (the percentage of kinase activity remains is below 70%) | 
≥ 70 | ≥ 70 | O=C(Nc1ccc(Cl)cc1)Nc1cccc2c1ccn2Cc1c[nH]c2ncccc12 [Example 10, 1-(4-Chlorophenyl)-3-[1-(1H-pyrrolo[2,3-b]pyridin-3-ylmethyl)-1H-indol-4-yl]urea hydrochloride] | B (the percentage is greater or equal to 70%) | 
 | < 70 | COc1ccc(Cl)cc1NC(=O)Nc1cccc2c1CCN2Cc1ccnc2[nH]ccc12.Cl [Example 1, 1-(2-Methoxyl-5-chlorophenyl)-3-[1-(1H-pyrrolo[2,3-b]pyridin-4-ylmethyl)-2,3-dihydro-1H-indol-4-yl]urea hydrochloride] | A (the percentage of kinase activity remains is below 70%) | A (the TGI is greater or equal to 50%)
≥ 70 | < 70 | COc1cccc(NC(=O)Nc2cccc3c2ccn3Cc2ccnc3[nH]ccc23)c1.Cl [Example 47, 1-(3-Methoxyphenyl)-3-[1-(1H-pyrrolo[2,3-b]pyridin-4-ylmethyl)-1H-indol-4-yl]urea hydrochloride] | A (the percentage of kinase activity remains is below 70%) | 

Reference: US8648086B2, “5,6-bicyclic heteroaryl-containing urea compounds as kinase inhibitors” (Ascepion Pharmaceuticals, Inc., priority 2009, dated 2014)
